Data on one compound can be found in patent US20090247548A1, “PYRROLOPYRIMIDINE DERIVATIVES FOR TREATING PROLIFERATIVE DISEASES” (priority 2004, published 2009).

Structures are written as SMILES.

As a reminder, the melting point is the temperature, or range, at which the solid turns liquid.

Turning to `C[C@@H](Nc1ncnc2[nH]c(-c3ccc(CN4CCNCC4)cc3)cc12)c1ccccc1` [Example 1, ((R)-1-Phenyl-ethyl)-[6-(4-piperazin-1-ylmethyl-phenyl)-7H-pyrrolo[2,3-d]pyrimidin-4-yl]-amine], the melting point was in the range of 240 to 242 °C.
